Experiments:
[1] = test system: G816 cells (glioma-initiating cell line); test: p38-regulated HSVtk constructs: FLAG abundance; type: cell-based, human; conditions: for FLAG expression of FLAG-NLS-HSVtk-MEF2A: two days, SB 203580 10 μM, trametinib 50 nM
Experimental: Referring to FIG. 18B, four designs tested included peptide sequences from the MAPK targets CHOP, MEF2A, p21, and FRA1. […] Sequences shown in blue were taken from proteins primarily phosphorylated by p38, while domains in gray were taken from the original FRA 1-PEST PEST design. The ERK recognition sequence was removed from these designs to improve specificity toward p38. G816 cells (glioma-initiating cell line) expressing each of the four HSVtk constructs were grown in 21% oxygen or 1% oxygen (hypoxia), with or without SB 203580 (p38 inhibitor, 10 μM for two days. Hypoxic induction of p38 phosphorylation promoted protein stabilization, which was abrogated with the addition of a p38 inhibitor to varying degrees for each construct.
Referring to FIG. 22A, G816-FLAG-NLS-HSVtk-MEF2A cells were treated with DMSO (vehicle), GCV (50 μM), or TMZ (500 μM) for up to 48 hours.
Referring to FIG. 22C, G816-FLAG-NLS-HSVtk-MEF2A cells were treated with DMSO (vehicle), SB 203580 (p38 inhibitor (p38i), 10 μM), or trametinib (MEK inhibitor (MEKi), 50 nM), in addition to TNFα, GCV, or TMZ for two days.

[2] = test system: cells expressing yCD-FIRE; test: yCD-FIRE expression and 5-FC cell killing; type: cell-based
[3] = test system: CK2α and CK2α′; test: CK2 catalytic subunit expression after TMZ or carboplatin (immunofluorescence); type: cell-based; conditions: U87 MG cells, drug treated
Experimental: FIGS. 36A and 36B. Effect of TMZ or carboplatin on CK2 expression. U87 MG cells were subjected to immunofluorescence microscopy using antibodies against the two CK2 catalytic (FIG. 36A: CK2α, FIG. 36B: CK2α′) subunits. Image is representative of n=3 replicates and data are plotted as mean±sd. A Student's t test was applied to determine the significance of observed differences; *, **, and *** indicate p=0.05, 0.01, or 0.001, respectively.
(§1) To determine if a CK2-regulated SGT would cooperate with chemotherapies used to treat glioblastoma, we measured the response of AKT-gen2 transductants to a combination of GCV with temozolomide (TMZ) or carboplatin. We hypothesized that a synergistic effect could occurs because CK2 contributes to DNA damage response and responds to stress signals; it seemed sensible that this could drive higher CK2 activity26,27,29.

[4] = test system: U87 MG cells expressing AKT-gen2; test: Effect of chemotherapy on AKT-gen2 SGT (FLAG) expression; type: cell-based; conditions: 48 hr; for FLAG expression of AKT-gen2 SGT vs control: carboplatin 200 μM or TMZ 300 μM, immunoblot
Experimental: U87 MG cells expressing AKT-gen2 were treated with carboplatin (200 μM), TMZ (300 μM), or DMSO, and lysed after 48 hours. Densitometry was used to quantify the GAPDH-normalized FLAG signal.
Cells were also treated with carboplatin (125 μM) or DMSO for 48 hours and immunofluorescence microscopy was performed using antibodies against the proteins as shown in FIG. 29B. The expression of each variant was quantified as the mean FLAG expression on a per-cell basis.
as §1
Given that. We further examined the extent of carboplatin-mediated effects on CK2 expression increase through immunofluorescence microscopy (FIG. 29B). AKT-gen2 transductants were plated in 96-well glass-bottomed plates for imaging and treated with a reduced carboplatin concentration (125 μM) to promote the retention of adherent cells.
Because we observed increased CK2α and CK2α′ in carboplatin-treated cells (FIGS. 27A, 36A, and 36B), we next examined if the carboplatin-dependent increase in AKT-gen2 expression relies on CK2 expression. In U87 MG AKT-gen2 transductants expressing CK2 (α/α′ catalytic subunits) or control shRNA, CK2α knockdown abrogated the carboplatin-mediated increase in SGT expression (FIG. 29C).

[5] = test system: U87 MG AKTgen2 transductants; test: Cell death by flow cytometry (TO-PRO-3), carboplatin pre-treatment followed by GCV; conditions: carboplatin 200 μM two days and/or GCV 50 μM three days
Experimental: Flow cytometry for cell death quantification. For cell death experiments, cells were plated in 6-well plates, and cell treatments were performed as described in figure legends. At the conclusion of experiments, floating and adherent cells were collected, resuspended in PBS containing TO-PRO-3 (Life Technologies, 1:10,000), and stored on ice until analysis. Within an hour of collection, cells were analyzed for TO-PRO-3 permeability with a FACSCalibur cytometer (BD Biosciences). Data collected from flow cytometry experiments was analyzed in R using the FlowCore, ggCyto, and OpenCyto packages.
Cells expressing AKT-gen2 were also pre-treated with DMSO or carboplatin (200 μM) for two days, followed by treatment with DMSO or GCV (50 μM) administration for three days. Cell death was then measured by flow cytometry through TOPRO staining.

Compound: Nc1nc(=O)c2ncn(COC(CO)CO)c2[nH]1 [GCV, ganciclovir]
- FLAG abundance of FLAG-NLS-HSVtk-MEF2A relative to vehicle ([1]; GCV 50 μM or TMZ 500 μM, 48 hours): increased FLAG abundance
- FLAG expression of FLAG-NLS-HSVtk-MEF2A [1]: increased

Compound: Nc1nc(=O)[nH]cc1F [Variant 5-FC, 5-fluorocytosine]
- cell viability in response to 5-FC plus growth factors ([2]; cells expressing yCD-FIRE): decreases
- 5-FC IC50 ([2]; cells treated with growth factors vs not treated): lower

Compound: C[S+]([O-])c1ccc(-c2nc(-c3ccncc3)c(-c3ccc(F)cc3)[nH]2)cc1 (stereo not drawn) [SB 203580]
- FLAG expression of FLAG-NLS-HSVtk-MEF2A [1]: attenuated in some cases

Compound: N.N.O=C([O-])C1(C(=O)[O-])CCC1.[Pt+2] [Carboplatin, carboplatin]
- CK2α and CK2α′ expression [3]: stronger increase
- carboplatin-mediated increase in SGT expression ([4]; CK2α knockdown, carboplatin 200 μM): abrogated
- FLAG expression of AKT-gen2 SGT ([4]; carboplatin 125 μM, immunofluorescence): significant enhancement in FLAG expression
- FLAG expression of AKT-gen2 SGT vs control [4]: significant increase in FLAG expression
- carboplatin-mediated change in SGT accumulation ([4]; cells expressing CK2α′ shRNA, carboplatin 200 μM): small but insignificant increase
- carboplatin-mediated change in AKT-gen2 expression ([4]; cells expressing control shRNA, carboplatin 200 μM): significant increase
- reduction in cell viability [5]: ~15%

Compound: TNFα
- FLAG expression of FLAG-NLS-HSVtk-MEF2A [1]: increased

Compound: Cn1nnc2c(C(N)=O)ncn2c1=O [TMZ, temozolomide]
- FLAG expression of AKT-gen2 SGT vs control [4]: no effect

Compound: CC(=O)Nc1cccc(-n2c(=O)n(C3CC3)c(=O)c3c(Nc4ccc(I)cc4F)n(C)c(=O)c(C)c32)c1 [trametinib, N-[3-[3-cyclopropyl-5-(2-fluoro-4-iodoanilino)-6,8-dimethyl-2,4,7-trioxopyrido[4,3-d]pyrimidin-1-yl]phenyl]acetamide]
- FLAG expression of FLAG-NLS-HSVtk-MEF2A [1]: promoted PEST stabilization
